From patent publication US12599584B2, “Indoline derivatives, compositions comprising them and uses thereof” (Yissum Research Development Company of The Hebrew …, priority 2016, dated 2026)

System: Caspase 3
Test: Caspase 3 activity in RAW macrophage 264.7 cells exposed to H2O2
Assay type: cell-based, mouse
Settings: 1×10^−13M
Method: Oxidative stress can cause apoptosis, a form of cell suicide mediated by a cascade of proteolytic enzymes called caspases (cysteinyl aspartate-specific proteases). Caspase 3 is one of a number of effector caspases. Its activity was measured by means of a luminescent assay (Caspase-Glo 3/7 Assay Promega Ltd). […] The medium was aspirated 90 min later, 100 μL of DMEM was added to each well and the plates kept in an incubator overnight. Caspase-GloR Reagent (100 μL) was added to each well and the contents gently mixed using a plate shaker at 300-500 rpm for 30 sec. The plates were left at room temperature for 30 min and then luminescence of each sample was measured in a plate-reading luminometer (Cytation 3).

Row | SMILES | Reduction in caspase 3 activity compared with the other compounds
1 | NCCCN1CCc2ccccc21 [AN1264, di-p-Toluenesulfonate] | less reduction in caspase 3 activity than the other compounds
2 | COC(=O)CCN1CCc2ccc(OCc3ccccc3)cc21.Cc1ccc(S(=O)(=O)O)cc1 [AN1279, Methyl 3-(6-(Benzyloxy)indolin-1-yl)propanoate p-Toluenesulfonate] | less reduction in caspase 3 activity than the other compounds
